Legend:
[1] = compound: CCCCOc1c(C(=O)c2c(F)cc(C)cc2F)c[nH]c2nncc1-2
[2] = compound: CCNC(=O)c1noc(-c2cc(C(C)C)c(O)cc2O)c1-c1ccc(CN2CCOCC2)cc1 [Luminespib/NVP-AUY922]
[3] = compound: CN(C)C/C=C/C(=O)NC1=CC=C(C=C1)C(=O)NC2=CC=CC(=C2)NC3=NC=NC(=C3)C4=CNC5=CC=CC=C54 [THZ-P1-2]
[4] = compound: CN(C)C/C=C/C(=O)Nc1ccc(O[C@@H]2CCC[C@@H](Nc3ncc(Cl)c(-c4c[nH]c5ccccc45)n3)C2)cc1 [BSJ-01-175]
[5] = compound: CN1CCN(CCOc2cc(OC3CCOCC3)c3c(Nc4c(Cl)ccc5c4OCO5)ncnc3c2)CC1 [Saracatinib/AZD0530]
[6] = compound: Cc1cc(Nc2ncc(Cl)c(Nc3ccccc3S(=O)(=O)C(C)C)n2)c(OC(C)C)cc1C1CCNCC1 [Ceritinib/LDK378]
[7] = compound: C=CC(=O)Nc1ccc(C(=O)Nc2[nH]nc3c2CN(C(=O)N[C@H](CN(C)C)c2ccccc2)C3(C)C)cc1 [YKL-5-124]; experiment: increase in dead-cell fraction, 72 h; higher = more death;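 further: breast cancer cell lines in 384-well plates, stained with Hoechst plus LIVE/DEAD far red dye and imaged, cells above an LDR intensity threshold counted dead, Hoechst-negative corpses included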
[8] = compound: CC(=O)c1c(C)c2cnc(Nc3ccc(N4CCN(CCOCCOCCOCCNC(=O)COc5cccc6c5C(=O)N(C5CCC(=O)NC5=O)C6=O)CC4)cn3)nc2n(C2CCCC2)c1=O [BSJ-03-123]; experiment: as above
[9] = compound: CC(=O)c1c(C)c2cnc(Nc3ccc(N4CCNCC4)cn3)nc2n(C2CCCC2)c1=O; experiment: as above
[10] = compound: CCN1CCN(Cc2ccc(Nc3ncc(F)c(-c4cc(F)c5nc(C)n(C(C)C)c5c4)n3)nc2)CC1; experiment: as above
[11] = compound: CCOc1cc2ncc(C#N)c(Nc3ccc(OCc4ccccn4)c(Cl)c3)c2cc1NC(=O)/C=C/CN(C)C [Neratinib/HKI272]; experiment: as above
[12] = compound: CCc1cnn2c(NCc3ccc[n+]([O-])c3)cc(N3CCCC[C@H]3CCO)nc12; experiment: as above
[13] = compound: CN(C)C(=O)c1cc2cnc(Nc3ccc(N4CCNCC4)cn3)nc2n1C1CCCC1 [LEE011/Ribociclib]; experiment: as above
[14] = compound: CN(C)C/C=C/C(=O)Nc1ccc(C(=O)N2CCC[C@@H](Nc3ncc(Cl)c(-c4c[nH]c5ccccc45)n3)C2)cc1 [THZ531]; experiment: as above
[15] = compound: CN(C)C/C=C/C(=O)Nc1ccc(C(=O)Nc2cccc(Nc3ncc(Cl)c(-c4c[nH]c5ccccc45)n3)c2)cc1 [THZ1]; experiment: as above
[16] = compound: CN1CC[C@H](c2c(O)cc(O)c3c(=O)cc(-c4ccccc4Cl)oc23)[C@H](O)C1 [Flavopiridol]; experiment: as above
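Wherever GR50, 72 h is given: breast cancer and non-malignant breast epithelial cell lines, Deep Dye Drop or Dye Drop imaging, nine half-log doses, GR normalized to time-zero plates and DMSO-only controls.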

In the case of HTERT_HME1, the “GR50, 72 h” value [1] is reported as 0.0012 µM, the “GR50, 72 h” value [2] is reported as 0.00855 µM and the “GR50, 72 h” value [3] is reported as 4.1 µM. The “GR50, 72 h” value [4] was 0.00582 µM, the “GR50, 72 h” value [5] was 7.23 µM and the “GR50, 72 h” value [6] was 0.822 µM. The “increase in dead-cell fraction” value ([7]; 0.001 µM) was 0.0989, the “increase in dead-cell fraction” value ([7]; 0.003162 µM) was 0.131 and the “increase in dead-cell fraction” value ([7]; 0.01 µM) was 0.165. For the same cell line, the “increase in dead-cell fraction” value ([7]; 0.03162 µM) was 0.151, the “increase in dead-cell fraction” value ([7]; 0.1 µM) was 0.181 and the “increase in dead-cell fraction” value ([7]; 0.3162 µM) was 0.224. The “increase in dead-cell fraction” value ([7]; 1 µM) was 0.144, the “increase in dead-cell fraction” value ([7]; 3.162 µM) was 0.293 and the “increase in dead-cell fraction” value ([7]; 10 µM) was 0.304. For the same cell line, the “increase in dead-cell fraction” value ([8]; 0.001 µM) was 0.0124, the “increase in dead-cell fraction” value ([8]; 0.003162 µM) was -0.0077 and the “increase in dead-cell fraction” value ([8]; 0.01 µM) was 0.0297. The “increase in dead-cell fraction” value ([8]; 0.03162 µM) was 0.0411, the “increase in dead-cell fraction” value ([8]; 0.1 µM) was 0.0394 and the “increase in dead-cell fraction” value ([8]; 0.3162 µM) was 0.0338. The “increase in dead-cell fraction” value ([8]; 1 µM) was 0.131, the “increase in dead-cell fraction” value ([8]; 3.162 µM) was 0.119 and the “increase in dead-cell fraction” value ([8]; 10 µM) was 0.363. For the same cell line, the “increase in dead-cell fraction” value ([9]; 0.0003162 µM) was -0.0026, the “increase in dead-cell fraction” value ([9]; 0.001 µM) was 0.0007 and the “increase in dead-cell fraction” value ([9]; 0.003162 µM) was -0.0013. For the same cell line, the “increase in dead-cell fraction” value ([9]; 0.01 µM) was -0.0019, the “increase in dead-cell fraction” value ([9]; 0.03162 µM) was 0.0014 and the “increase in dead-cell fraction” value ([9]; 0.1 µM) was 0.0147. For the same cell line, the “increase in dead-cell fraction” value ([9]; 0.3162 µM) was 0.0168, the “increase in dead-cell fraction” value ([9]; 1 µM) was 0.0267 and the “increase in dead-cell fraction” value ([9]; 3.162 µM) was 0.0446. For the same cell line, the “increase in dead-cell fraction” value ([10]; 0.001 µM) was 0.0004, the “increase in dead-cell fraction” value ([10]; 0.003162 µM) was -0.0056 and the “increase in dead-cell fraction” value ([10]; 0.01 µM) was -0.0023. The “increase in dead-cell fraction” value ([10]; 0.03162 µM) was 0.002, the “increase in dead-cell fraction” value ([10]; 0.1 µM) was 0.0067 and the “increase in dead-cell fraction” value ([10]; 0.3162 µM) was 0.0112. The “increase in dead-cell fraction” value ([10]; 1 µM) was 0.0329, the “increase in dead-cell fraction” value ([10]; 3.162 µM) was 0.0399 and the “increase in dead-cell fraction” value ([10]; 10 µM) was 0.111. For the same cell line, the “increase in dead-cell fraction” value ([11]; 0.0003162 µM) was -0.0015, the “increase in dead-cell fraction” value ([11]; 0.001 µM) was 0.0018 and the “increase in dead-cell fraction” value ([11]; 0.003162 µM) was 0.0002. The “increase in dead-cell fraction” value ([11]; 0.01 µM) was -0.0031, the “increase in dead-cell fraction” value ([11]; 0.03162 µM) was -0.0026 and the “increase in dead-cell fraction” value ([11]; 0.1 µM) was 0.0016. For the same cell line, the “increase in dead-cell fraction” value ([11]; 0.3162 µM) was 0.0161, the “increase in dead-cell fraction” value ([11]; 1 µM) was 0.0278 and the “increase in dead-cell fraction” value ([11]; 3.162 µM) was 0.106. The “increase in dead-cell fraction” value ([12]; 0.0001 µM) was -0.0004, the “increase in dead-cell fraction” value ([12]; 0.0003162 µM) was -0.0019 and the “increase in dead-cell fraction” value ([12]; 0.001 µM) was 0.0008. The “increase in dead-cell fraction” value ([12]; 0.003162 µM) was 0.0059, the “increase in dead-cell fraction” value ([12]; 0.01 µM) was 0.0263 and the “increase in dead-cell fraction” value ([12]; 0.03162 µM) was 0.571. For the same cell line, the “increase in dead-cell fraction” value ([12]; 0.1 µM) was 0.558, the “increase in dead-cell fraction” value ([12]; 0.3162 µM) was 0.535 and the “increase in dead-cell fraction” value ([12]; 1 µM) was 0.511. The “increase in dead-cell fraction” value ([13]; 0.001 µM) was 0.0038, the “increase in dead-cell fraction” value ([13]; 0.003162 µM) was 0.0127 and the “increase in dead-cell fraction” value ([13]; 0.01 µM) was 0.0406. For the same cell line, the “increase in dead-cell fraction” value ([13]; 0.03162 µM) was 0.0372, the “increase in dead-cell fraction” value ([13]; 0.1 µM) was 0.0514 and the “increase in dead-cell fraction” value ([13]; 0.3162 µM) was 0.0715. The “increase in dead-cell fraction” value ([13]; 1 µM) was 0.0391, the “increase in dead-cell fraction” value ([13]; 3.162 µM) was 0.0932 and the “increase in dead-cell fraction” value ([13]; 10 µM) was 0.132. For the same cell line, the “increase in dead-cell fraction” value ([14]; 0.0001 µM) was -0.0002, the “increase in dead-cell fraction” value ([14]; 0.0003162 µM) was -0.0145 and the “increase in dead-cell fraction” value ([14]; 0.001 µM) was 0.0054. For the same cell line, the “increase in dead-cell fraction” value ([14]; 0.003162 µM) was -0.0171, the “increase in dead-cell fraction” value ([14]; 0.01 µM) was -0.0178 and the “increase in dead-cell fraction” value ([14]; 0.03162 µM) was 0.0065. The “increase in dead-cell fraction” value ([14]; 0.1 µM) was 0.0042, the “increase in dead-cell fraction” value ([14]; 0.3162 µM) was 0.175 and the “increase in dead-cell fraction” value ([14]; 1 µM) was 0.386. The “increase in dead-cell fraction” value ([15]; 0.0001 µM) was -0.0026, the “increase in dead-cell fraction” value ([15]; 0.0003162 µM) was 0.0021 and the “increase in dead-cell fraction” value ([15]; 0.001 µM) was 0.0031. The “increase in dead-cell fraction” value ([15]; 0.003162 µM) was 0.0375, the “increase in dead-cell fraction” value ([15]; 0.01 µM) was 0.292 and the “increase in dead-cell fraction” value ([15]; 0.03162 µM) was 0.545. The “increase in dead-cell fraction” value ([15]; 0.1 µM) was 0.528, the “increase in dead-cell fraction” value ([15]; 0.3162 µM) was 0.548 and the “increase in dead-cell fraction” value ([15]; 1 µM) was 0.71. The “increase in dead-cell fraction” value ([16]; 0.0001 µM) was -0.0184, the “increase in dead-cell fraction” value ([16]; 0.0003162 µM) was -0.0042 and the “increase in dead-cell fraction” value ([16]; 0.001 µM) was 0.0033. For the same cell line, the “increase in dead-cell fraction” value ([16]; 0.003162 µM) was 0.0052, the “increase in dead-cell fraction” value ([16]; 0.01 µM) was 0.0001 and the “increase in dead-cell fraction” value ([16]; 0.03162 µM) was 0.007. The “increase in dead-cell fraction” value ([16]; 0.1 µM) was 0.051, the “increase in dead-cell fraction” value ([16]; 0.3162 µM) was 0.183 and the “increase in dead-cell fraction” value ([16]; 1 µM) was 0.577.

— the supplement of paper PMC9663587
